Reference: patent US11525018B2, “Methods of preparing compositions for containers and other articles and methods of using same” (SWIMC LLC, priority 2014, dated 2022)

Legend:
[1] = test system: MCF-7, clone WS8, cells; assay: MCF-7 cell proliferation assay of estrogenic activity; format: cell-based, human; settings: logarithmic (base 10) Relative Proliferative Effect vs 17-beta estradiol (EC50 ratio times 100), cell proliferation as total DNA; values 'expected or measured'
Description: The MCF-7 assay is a useful test for assessing whether a polyhydric phenol compound is appreciably non-estrogenic. The MCF-7 assay uses MCF-7, clone WS8, cells to measure whether and to what extent a substance induces cell proliferation via estrogen receptor (ER)-mediated pathways. The method is described in “Test Method Nomination: MCF-7 Cell Proliferation Assay of Estrogenic Activity” submitted for validation by CertiChem, Inc. to the National Toxicology Program Interagency Center for the Evaluation of Alternative Toxicological Methods (NICEATM) on Jan. 19, 2006 (available online at http://iccvam.niehs.nih.gov/methods/endocrine/endodocs/SubmDoc.pdf).
A brief summary of the method of the aforementioned MCF-7 assay is provided below. MCF-7, clone WS8, cells are maintained at 37° C. in RMPI (or Roswell Park Memorial Institute medium) containing Phenol Red (e.g., GIBCO Catalog Number 11875119) and supplemented with the indicated additives for routine culture. An aliquot of cells maintained at 37° C. are grown for 2 days in phenol-free media containing 5% charcoal stripped fetal bovine serum in a 25 cm^2 tissue culture flask. Using a robotic dispenser such as an epMotion 5070 unit, MCF-7 cells are then seeded at 400 cells per well in 0.2 ml of hormone-free culture medium in Corning 96-well plates. The cells are adapted for 3 days in the hormone-free culture medium prior to adding the chemical to be assayed for estrogenic activity. The media containing the test chemical is replaced daily for 6 days. At the end of the 7-day exposure to the test chemical, the media is removed, the wells are washed once with 0.2 ml of HBSS (Hanks' Balanced Salt Solution), and then assayed to quantify amounts of DNA per well using a micro-plate modification of the Burton diphenylamine (DPA) assay, which is used to calculate the level of cell proliferation.
RPE is the ratio between the EC50 of the test chemical and the EC50 of the control substance 17-beta estradiol times 100, where EC50 is “effective concentration 50%” or half-maximum stimulation concentration for cell proliferation measured as total DNA in the MCF-7 assay.

[2] = suitable genotoxicity assays (e.g., Ames II assay)
Procedure: A solution of 4,4′-methylenebis(2,6-di-t-butylphenol) (500 grams, 1.076 moles obtained from Albemarle Corporation) in anhydrous dimethylformamide (1.5 liters) was cooled to −10° C. and a solution of sodium tert-pentoxide (374 grams, 3.23 moles) in anhydrous dimethylformamide (1.5 liters) was added drop wise at −10 to −5° C. The mixture was stirred for 30 minutes at −10° C. Epichlorohydrin (1.9 liters, 24.2 moles) was added via dropping funnel at −10 to −5° C. The solution was allowed to warm up to room temperature and then was heated for 16 hours at a temperature of from 75 to 82° C. After cooling down to ambient temperature, the mixture was added to cold tap water (12 liters). Ethyl acetate (5 liters) was added to the mixture, which was stirred for 10 minutes and separated. The aqueous layer was extracted again with additional ethyl acetate (3 liters). The combined ethyl acetate extracts were washed twice with brine (2×6 liters), dried over anhydrous sodium sulfate (600 grams), and filtered. The solvent was removed under reduced pressure to give 887 grams of crude product as a purple oil. The crude product was dissolved in toluene (600 milliliters) and passed over a silica gel pad (1.4 kilograms), and eluted with a mixture of toluene and heptane (8 parts toluene to 2 parts heptane). The fractions containing product were combined and evaporated under reduced pressure. […]

[3] = biological target: T1, human estrogen receptor (Homo sapiens, UniProt P03372); assay: suitable in vitro assay correlated to the MCF-7 assay (estrogenic activity); format: cell-based; settings: in vitro assay whose results are directly correlated to the MCF-7 assay through common reference compounds
T1 sequence (P03372 1-595): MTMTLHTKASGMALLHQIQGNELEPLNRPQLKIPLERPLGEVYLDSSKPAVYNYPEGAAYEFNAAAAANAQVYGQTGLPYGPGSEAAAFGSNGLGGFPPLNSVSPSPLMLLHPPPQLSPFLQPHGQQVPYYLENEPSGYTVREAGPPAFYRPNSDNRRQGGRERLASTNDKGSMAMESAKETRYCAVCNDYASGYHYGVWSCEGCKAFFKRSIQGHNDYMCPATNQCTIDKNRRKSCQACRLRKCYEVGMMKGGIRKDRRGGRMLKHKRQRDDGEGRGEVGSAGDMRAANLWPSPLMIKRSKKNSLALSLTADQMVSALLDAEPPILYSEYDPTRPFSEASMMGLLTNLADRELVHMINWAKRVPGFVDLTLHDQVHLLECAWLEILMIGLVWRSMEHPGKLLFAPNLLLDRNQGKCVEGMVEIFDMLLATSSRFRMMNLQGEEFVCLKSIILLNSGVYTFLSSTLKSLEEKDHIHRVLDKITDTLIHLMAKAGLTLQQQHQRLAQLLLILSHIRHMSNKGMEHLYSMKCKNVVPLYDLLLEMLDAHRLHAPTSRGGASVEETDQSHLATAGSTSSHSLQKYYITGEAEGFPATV

Compound | Log RPE [1] | other results
C[C@]12CC[C@@H]3c4ccc(O)cc4CC[C@H]3[C@@H]1CC[C@@H]2O [17β-estradiol, reference compound] | 2.00 | –
Oc1ccc(Cc2ccc(O)cc2)cc1 [Bisphenol F, reference compound] | −2 | –
CCc1cc(Cc2cc(CC)cc(C(C)(C)C)c2O)c(O)c(C(C)(C)C)c1 [Structure 15] | less than −4 | –
CC(C)(c1ccc(O)cc1)c1ccc(C(C)(C)c2ccc(O)cc2)cc1 [Structure 10] | less than −4 | –
CCCC(c1cc(C(C)(C)C)c(O)cc1C)c1cc(C(C)(C)C)c(O)cc1C [Structure 7] | less than −4 | –
O=C(OCC1CCC(COC(=O)c2cccc(O)c2)CC1)c1cccc(O)c1 (stereo not shown) [Example 2, Run III, bis(3-hydroxybenzoate) of Cyclohexanedimethanol] | less than −4 | –
Oc1ccccc1Cc1ccccc1O [Structure 11] | less than −4 | –
CC(c1ccc(O)cc1)(c1ccc(O)cc1)c1ccc(O)cc1 [Structure 3] | −3 | –
O=S(=O)(c1ccc(O)cc1)c1ccc(O)cc1 [Bisphenol S, reference compound] | −2 | –
CCCC(c1cc(C(C)(C)C)c(OCC2CO2)cc1C)c1cc(C(C)(C)C)c(OCC2CO2)cc1C (stereo not shown) [Diglycidyl ether of 4,4′Butylidenebis(2-t-butyl-5-methylphenol))] | – | genotoxicity [2]: non-genotoxic
C/C=C(/C(=C/C)c1ccc(O)cc1)c1ccc(O)cc1 [dienestrol, reference compound] | about 2 | –
Cc1cc(Cc2cc(C)c(O)c(C)c2)cc(C)c1O [Structure 6, 4,4′-methylenebis(2,6-dimethylphenol)] | – | estrogenic activity [3]: do not exhibit appreciable estrogenic activity
Cc1cc(Cc2cc(C)c(O)c(C)c2)cc(C)c1O [Structure 6] | less than −4 | –
CC(C)(C)c1cc(O)c(C(C)(C)C)cc1O [Structure 12] | less than −4 | –
CC(C)(c1cc(Br)c(O)c(Br)c1)c1cc(Br)c(O)c(Br)c1 [Structure 16] | −3 | –
Cc1cc(Cc2cc(C)cc(C3(C)CCCCC3)c2O)c(O)c(C2(C)CCCCC2)c1 [Structure 13] | less than −4 | –
Cc1cc(CCc2cc(C)c(O)c(C)c2)cc(C)c1O [Structure 2] | −3 | –
CC(C)(C)c1cc(O)c(C(C)(C)C)cc1O [Structure 12, 2,5-di-t-butylhydroquinone] | – | estrogenic activity [3]: do not exhibit appreciable estrogenic activity
Cc1cc(C(C)(C)c2cc(C)c(O)c(C)c2)cc(C)c1O [Structure 1] | −2 | –
CC/C(=C(/CC)c1ccc(O)cc1)c1ccc(O)cc1 [diethylstilbestrol, reference compound] | about 2 | –
CC(C(=O)O)(c1ccc(O)cc1)c1ccc(O)cc1 [Structure 5] | less than −4 | –
CC(C)(C)c1cc(Cc2cc(C(C)(C)C)c(O)c(C(C)(C)C)c2)cc(C(C)(C)C)c1O [Structure 8, 4,4′-methylenebis(2,6-di-t-butylphenol)] | – | estrogenic activity [3]: do not exhibit appreciable estrogenic activity
Cc1cc(Cc2cc(C)cc(C(C)(C)C)c2O)c(O)c(C(C)(C)C)c1 [Structure 9] | less than −4 | estrogenic activity [3]: do not exhibit appreciable estrogenic activity
CCCC(c1cc(C(C)(C)C)c(O)cc1C)c1cc(C(C)(C)C)c(O)cc1C [Structure 7, 4,4′-butylidenebis(2-t-butyl-5-methylphenol)] | – | estrogenic activity [3]: do not exhibit appreciable estrogenic activity
CC(c1ccccc1)(c1ccc(O)cc1)c1ccc(O)cc1 [Structure 4] | −3 | –
O=c1c(-c2ccc(O)cc2)coc2cc(O)cc(O)c12 [Genistein, reference compound] | −2 | –
CC(C)(C)c1cc(Cc2cc(C(C)(C)C)c(OCC3CO3)c(C(C)(C)C)c2)cc(C(C)(C)C)c1OCC1CO1 (stereo not shown) [Diglycidyl ether of 4,4′-methylenebis(2,6-di-tert-butylphenol)] | – | genotoxicity [2]: non-genotoxic
